Experimental data published in US20040086498A9, “Cancer therapy” (priority 1999, published 2004).

Key:
established EL-4 tumours = assay: Adoptive transfer of anti-tumour splenocytes from treated mice; type: in vivo; conditions: 2×10^8 splenocytes from treated mice; recipients with EL-4 tumours up to 0.8 cm
Method: Adoptive Transfer of Anti-Tumour CTL. Adoptive transfer of anti-tumour splenocytes was as described previously (Kanwar et al, 1999). Briefly, splenocytes obtained from mice 21 days following therapy were resuspended in Hank's balanced salt solution containing 1% FCS, and stimulated with 5 μg/ml PHA and 100 U/ml recombinant mouse IL-2 for 4 to 5 days. Animals bearing tumours 0.6 cm in diameter received both intratumoral and i.p. injections of 2×10^8 cultured splenocytes.

heat shock protein 70 = assay: Immunohistology of hsp70 expression in tumours; type: in vivo, mice; conditions: 7 days following administration
Method: Immunohistology. Tumours were excised on the seventh day following administration of therapeutic agents and controls, immediately frozen in dry ice, stored at −70° C. in isopentane, and sections of 10 μm thickness prepared. Sections were mounted on poly L-lysine-coated slides, and endogenous peroxidases blocked by incubating slides for 30 min in 0.3% H2O2 in methanol. Sections were stained with mouse anti-Hsp70 mAb (SPA-810 antibody; StressGen Biotechnologies Corp., Victoria, Canada) using a mouse-on-mouse immunodetection ABC Elite peroxidase kit (Vector Laboratories, Burlingame, Calif., USA). They were developed with SIGMA FAST DAB (3,3′-diaminobenzidine tetrahydrochloride) with metal enhancer CoCl2 tablets, and counterstained with haematoxylin and eosin. As a control, the primary antibody was substituted with rat IgG (Sigma, USA).

EL-4 tumour sections = assay: In situ detection of apoptotic and necrotic cells (TUNEL / propidium iodide); type: in vivo, mice; conditions: tumour sections 7, 14, 21 days after treatment; TUNEL and PI
Method: In Situ Detection of Apoptotic Cells. Tumours were excised and immediately frozen in dry ice, stored at −70° C., and serial sections of 6 μm thickness prepared. TUNEL staining was performed using an In Situ apoptosis detection kit from Boehringer Mannheim, Germany. Briefly, frozen sections were fixed with paraformaldehyde solution (4% in PBS, pH 7.4), and permeabilized with a solution containing 0.1% Triton X-100 and 0.1% sodium citrate. After washing they were incubated with 20 μl TUNEL reagent for 60 min at 37° C., and examined by fluorescence microscopy. Some slides were counterstained with propidium iodide (PI; Sigma, Calif., USA) to distinguish necrotic cells from those undergoing apoptosis. Adjacent sections were counterstained with haematoxylin and eosin and mounted. The total number of apoptotic or necrotic cells were counted. The apototic index (AI) or necrotic index (NI) was calculated as follows: AI or NI=number of apoptotic or necrotic cells×100/total number of nucleated cells.

EL-4 tumours = assay: Treatment of large established EL-4 tumours with CAM gene transfer, DMXAA/FAA or timed combination; type: in vivo, C57BL/6 mice; conditions: large EL-4 tumours 0.6-0.8 cm; systemic (i.p.) optimal dose monotherapy; over a period of 3 weeks
Method: Female C57BL/6 mice, 6-9 weeks old, were obtained from the Animal Resource Unit, School of Medicine and Health Science, University of Auckland, Auckland. The EL-4 thymic lymphoma and mouse Lewis lung carcinoma cells (LLC) (H-2b) were purchased from the American Type Culture Collection (Rockville, Md). These cell lines were cultured in vitro at 37° C. in DMEM medium (Gibco BRL), supplemented with 10% foetal calf serum, 50 U/ml penicillin/streptomycin, 2 mM L-glutamine, 1 mM pyruvate.
Experimental Tumour Model.
Administration FAA and DMXAA Analogues. FAA was gifted from the Department of Health & Human Services, Drug Synthesis & Chemistry laboratory, National Cancer Institute, Bethesda, USA. The sodium salt of DMXAA was synthesized in the Auckland Cancer Society Research Centre, School of Medicine and Health Science, University of Auckland. Solutions of FAA and DMXAA in 5% (w/v) sodium bicarbonate and water, respectively, were prepared fresh for each experiment and protected from light. FAA and DMXAA were injected i.p. at 300 mg/Kg and 25 mg/Kg of body weight in a volume of 0.01 ml/g body weight, respectively.
Gene Transfer of B7.1. […]

EL-4 target cells = assay: Measurement of anti-tumour CTL activity of splenocytes from treated mice; type: cell-based; conditions: 21 days following gene transfer; combinations versus B7.1 monotherapy
Method: Measurement of the Generation of Anti-Tumour CTL. Splenocytes were harvested 21, and 42 days following initial gene transfer, and 22 days following a parental tumour challenge. They were incubated at 37° C. with EL-4 target cells in graded E:T ratios in 96-well round-bottom plates. After a 4-hour incubation, 50 μl of supernatant was collected, and lysis was measured using the Cyto Tox 96 Assay Kit (Promega, Madison, Wis., USA). Background controls for non-specific target and effector cell lysis were included. After background subtraction, percentage of cell lysis was calculated using the formula: 100×(experimental-spontaneous effector-target spontaneous target/maximum target-spontaneous target).

Row | Compound | anti-tumour effect of adoptively transferred splenocytes (established EL-4 tumours) | hsp70 expression in tumours (heat shock protein 70) | apoptotic versus necrotic tumour cells (EL-4 tumour sections) | tumour diameter to which tumours shrank (EL-4 tumours) | anti-tumour CTL activity of splenocytes (EL-4 target cells)
1 | Cc1ccc2c(=O)c3cccc(CC(=O)O)c3oc2c1C [DMXAA, 5,6-dimethylxanthenone-4-acetic acid] | no detectable anti-tumour activity | consistently found upregulated on tumour cells either surrounding or within the vicinity of blood vessels | predominance of necrotic cells | 0.1-0.2 cm | very poor effectors
2 | flavone acetic acid [FAA] | – | – | – | 0.2-0.4 cm | very poor effectors
